Assay results published in paper doi:10.1101/2021.12.22.473926v1 (biorxiv, 2021).

Target: cruzain (Trypanosoma cruzi, UniProt P25779)
Experiment: fluorimetric Z-FR-AMC cleavage, initial rates
Type: biochemical

Chain of cruzain (P25779 123-337): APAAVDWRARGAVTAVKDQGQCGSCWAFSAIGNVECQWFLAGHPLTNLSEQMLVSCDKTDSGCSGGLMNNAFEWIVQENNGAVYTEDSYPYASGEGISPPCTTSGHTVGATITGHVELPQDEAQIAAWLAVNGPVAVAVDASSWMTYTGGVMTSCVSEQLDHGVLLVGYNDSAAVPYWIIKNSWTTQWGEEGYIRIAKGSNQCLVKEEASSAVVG

- IC50: 29.7 ± 9.16 nM
Compound: CC(C)C[C@H](NC(=O)[C@H]1O[C@@H]1C(=O)O)C(=O)NCCCCN=C(N)N [E-64, trans-Epoxysuccinyl-L-leucylamido(4-guanidino)butane, reference compound]
